Earlier results in PubChem BioAssay AID1259409 (Chemical Carcinogenesis Research Information System (CCRIS), 2018).
Where “and” joins values, the source holds several entries; their conditions need not be identical. Equal entries are not always repeated. Where a SMILES comes first, the peptide text is derived from it. Bridges are numbered along the chain shown (N, C = ends). [ ]: non-standard residue; d: D form.

System: rodent chemically induced tumor inhibition, incidence and multiplicity
Assay: CCRIS tumor inhibitor studies

Q: What does the source list for `c1cc2c(cc1[C@H]1OC[C@@H]3[C@H]1CO[C@H]3c1ccc3c(c1)OCO3)OCO2`?
A: tumour outcome (control, treated, inhibition, significance) (Carcinogen: 4-NITROQUINOLINE-N-OXIDE, 56-57-5, Dose [Inhibitor]: 0, 2.5 MG/100 ML DRINKING WATER (TOTAL WEEKLY DOSE 1.26 MG) FOR 25 WK BEGINNING 5 WK POST CARCINOGEN DOSE (STUDY DURATIO, Route [Inhibitor]: ORAL, Species: MOUSE, Strain/Sex: ICR/FEMALE, Target Tissue: Type of Lesion: LUNG: TUMOR, Dose [Carcinogen]: 0.3 MG ONCE, Promoter: GLYCEROL, 56-81-5): 87%, 47%, 46%, p<0.05; tumour outcome (control, treated, inhibition, significance) (Carcinogen: 7,12-DIMETHYLBENZ[A]ANTHRACENE, 57-97-6, Dose [Inhibitor]: 0, 85 NMOL IN 0.1 ML ACETONE 2/WK FOR 20 WK APPLIED 1 HR PRIOR TO EACH PROMOTER DOSE (STUDY DURATION: 20 WK), Route [Inhibitor]: DERMAL, Species: MOUSE, Strain/Sex: ICR/FEMALE, Target Tissue: Type of Lesion: SKIN: PAPILLOMA, Dose [Carcinogen]: 100 UG IN 0.1 ML ACETONE ONCE, Promoter: 12-O-TETRADECANOYLPHORBOL-13-ACETATE, 16561-29-8): 100%, 85%, 15%, not calculated

Q: With `O=C(O)/C=C/c1ccccc1O` as the compound, how does the “tumour outcome (control, treated, inhibition, significance)” value (Carcinogen: BENZO[A]PYRENE, 50-32-8, Dose [Inhibitor]: 0.03 MMOL/G OF DIET DAILY STARTING 7 D BEFORE AND CONTINUING THROUGH 3 D AFTER CARCINOGEN TREATMENT FOLLOWED BY OBSERVAT, Route [Inhibitor]: ORAL, Species: MOUSE, Strain/Sex: ICR/FEMALE, Target Tissue: Type of Lesion: FORESTOMACH: NEOPLASM, Dose [Carcinogen]: 1 MG IN 0.2 ML CORN OIL 2/WK FOR 4 WK, Promoter: NONE USED) read?
A: 100%, 100%, 0%, not significant

Q: What about the “tumour outcome (control, treated, inhibition, significance)” value (Carcinogen: BENZO[A]PYRENE, 50-32-8, Dose [Inhibitor]: 0.06 MMOL/G OF DIET DAILY STARTING 7 D BEFORE AND CONTINUING THROUGH 3 D AFTER CARCINOGEN TREATMENT FOLLOWED BY OBSERVAT, Route [Inhibitor]: ORAL, Species: MOUSE, Strain/Sex: ICR/FEMALE, Target Tissue: Type of Lesion: FORESTOMACH: NEOPLASM, Dose [Carcinogen]: 1 MG IN 0.2 ML CORN OIL 2/WK FOR 4 WK, Promoter: NONE USED) of the same compound?
A: 100%, 84%, 16%, not significant and 97%, 89%, 8%, not significant and 100%, 82%, 18%, not significant

Q: With `CN(C)CCOc1ccc([C@H]2C[C@]3(C)[C@@H](O)CC[C@H]3[C@@H]3CCc4cc(O)ccc4[C@H]32)cc1` as the compound, how does the “tumour outcome (control, treated, inhibition, significance)” value (Carcinogen: ESTRADIOL, 50-28-2, Dose [Inhibitor]: 0, 25 MG/PELLET 2 PELLETS IMPLANTED EVERY 3 MO BEGINNING 15 D PRIOR TO CARCINOGEN DOSE (STUDY DURATION: 8 MO), Route [Inhibitor]: SUBCUTANEOUS IMPLANT, Species: HAMSTER, Strain/Sex: SYRIAN/MALE, Target Tissue: Type of Lesion: KIDNEY: TUMOR, Dose [Carcinogen]: 25 MG PELLET IMPLANTED EVERY 3 MO, Promoter: NONE USED) read?
A: 5/5 (100%), 7/8 (88%), 12%, not significant

Q: For `O=C(O)c1cc(O)c(O)c(O)c1`, which “tumour outcome (control, treated, inhibition, significance)” value (Carcinogen: 7,12-DIMETHYLBENZ[A]ANTHRACENE, 57-97-6, Dose [Inhibitor]: 0, 12 MG 2/WK FOR 30 WK APPLIED 20 MIN PRIOR TO EACH PROMOTER DOSE (STUDY DURATION: 32 WK), Route [Inhibitor]: DERMAL, Species: MOUSE, Strain/Sex: SENCAR/FEMALE, Target Tissue: Type of Lesion: SKIN: PAPILLOMA, Dose [Carcinogen]: 25 NMOL ONCE, Promoter: M-CHLOROPEROXYBENZOIC ACID, 937-14-4) is on record?
A: 39%, 3%, 92%, not calculated

Q: And the “tumour outcome (control, treated, inhibition, significance)” value (Carcinogen: 7,12-DIMETHYLBENZ[A]ANTHRACENE, 57-97-6, Dose [Inhibitor]: 0, 20 UMOL IN 0.4 ML ACETONE 20 MIN PRIOR TO EACH PROMOTER DOSE (STUDY DURATION: 47 WK), Route [Inhibitor]: DERMAL, Species: MOUSE, Strain/Sex: CF-1/FEMALE, Target Tissue: Type of Lesion: SKIN: CARCINOMA, Dose [Carcinogen]: 100 NMOL IN 0.2 ML ACETONE ONCE)?
A: 67%, 28%, 58%, p<0.005

Q: And the “tumour outcome (control, treated, inhibition, significance)” value (Carcinogen: 7,12-DIMETHYLBENZ[A]ANTHRACENE, 57-97-6, Dose [Inhibitor]: 0, 20 UMOL IN 0.4 ML ACETONE 20 MIN PRIOR TO EACH PROMOTER DOSE (STUDY DURATION: 47 WK), Route [Inhibitor]: DERMAL, Species: MOUSE, Strain/Sex: CF-1/FEMALE, Target Tissue: Type of Lesion: SKIN: PAPILLOMA, Dose [Carcinogen]: 100 NMOL IN 0.2 ML ACETONE ONCE)?
A: 94%, 80%, 15%, not calculated

Q: And the “tumour outcome (control, treated, inhibition, significance)” value (Carcinogen: BENZO[A]PYRENE, 50-32-8, Dose [Inhibitor]: 1% AQUEOUS SOLUTION 3/WK FOR A TOTAL OF 80 APPLICATIONS BEGINNING POST CARCINOGEN DOSE (STUDY DURATION: 567-580 D), Route [Inhibitor]: DERMAL, Species: MOUSE, Strain/Sex: CD-1/MALE, FEMALE, Target Tissue: Type of Lesion: SKIN: TUMOR, Dose [Carcinogen]: 0.53-0.6 MG ONCE, Promoter: NONE USED)?
A: 15/50 (30%), 15/50 (30%), 0%, not significant

Q: Which “tumour outcome (control, treated, inhibition, significance)” value (Carcinogen: 7,12-DIMETHYLBENZ[A]ANTHRACENE, 57-97-6, Dose [Inhibitor]: 0, 0.2 PPM IN DIET BEGINNING 3 D PRIOR TO CARCINOGEN DOSE AND CONTINUING FOR 8 MO (STUDY DURATION: 8 MO), Route [Inhibitor]: ORAL, Species: MOUSE, Strain/Sex: BALB/FEMALE, Target Tissue: Type of Lesion: MAMMARY GLAND: ADENOCARCINOMA, Dose [Carcinogen]: 1 MG/WK FOR 6 WK, Promoter: NONE USED) does the source give for `NC(C[Se][Se]CC(N)C(=O)O)C(=O)O` (stereo not given) here?
A: 12/31 (39%), 8/28 (29%), 26%, not calculated

Q: What about the “tumour outcome (control, treated, inhibition, significance)” value (Carcinogen: 7,12-DIMETHYLBENZ[A]ANTHRACENE, 57-97-6, Dose [Inhibitor]: 0, 2 PPM IN DIET BEGINNING 3 D PRIOR TO CARCINOGEN DOSE AND CONTINUING FOR 8 MO (STUDY DURATION: 8 MO), Route [Inhibitor]: ORAL, Species: MOUSE, Strain/Sex: BALB/FEMALE, Target Tissue: Type of Lesion: MAMMARY GLAND: ADENOCARCINOMA, Dose [Carcinogen]: 1 MG/WK FOR 6 WK, Promoter: NONE USED) of the same compound?
A: 12/31 (39%), 7/24 (29%), 26%, not calculated

Q: Which results are given for `CC(C)[C@@H]1NC(=O)[C@H](CCCCN)NC(=O)[C@@H](Cc2c[nH]c3ccccc23)NC(=O)[C@H](Cc2ccc(O)cc2)NC(=O)[C@@H](NC(=O)[C@H](N)Cc2ccccc2)CSSC[C@@H](C(=O)N[C@@H](Cc2c[nH]c3ccccc23)C(N)=O)NC1=O` (H-[dF]CY[dW]KVCW-NH2; disulfide 2-7)?
A: tumour outcome (control, treated, inhibition, significance) (Carcinogen: N-BUTYL-N-(4-HYDROXYBUTYL)NITROSAMINE, 3817-11-6, Dose [Inhibitor]: 0, 50 UG/RAT/D FOR 12 WK BEGINNING POST CARCINOGEN TREATMENT (STUDY DURATION: 17 WK), Route [Inhibitor]: SUBCUTANEOUS, Species: RAT, Strain/Sex: F344/FEMALE, Target Tissue: Type of Lesion: URINARY BLADDER: CARCINOMA IN SITU, Dose [Carcinogen]: 0.05% IN DRINKING WATER FOR 4 WK, Promoter: MITOMYCIN C, 50-07-7): 10/40 (25%), 1/20 (5%), 80%, p<0.001; tumour outcome (control, treated, inhibition, significance) (Carcinogen: N-BUTYL-N-(4-HYDROXYBUTYL)NITROSAMINE, 3817-11-6, Dose [Inhibitor]: 0, 50 UG/RAT/D FOR 12 WK BEGINNING POST CARCINOGEN TREATMENT (STUDY DURATION: 17 WK), Route [Inhibitor]: SUBCUTANEOUS, Species: RAT, Strain/Sex: F344/FEMALE, Target Tissue: Type of Lesion: URINARY BLADDER: INVASIVE CARCINOMA, Dose [Carcinogen]: 0.05% IN DRINKING WATER FOR 4 WK, Promoter: MITOMYCIN C, 50-07-7): 12/40 (30%), 0/20 (0%), 100%, not calculated; tumour outcome (control, treated, inhibition, significance) (Carcinogen: N-BUTYL-N-(4-HYDROXYBUTYL)NITROSAMINE, 3817-11-6, Dose [Inhibitor]: 0, 50 UG/RAT/D FOR 12 WK BEGINNING POST CARCINOGEN TREATMENT (STUDY DURATION: 17 WK), Route [Inhibitor]: SUBCUTANEOUS, Species: RAT, Strain/Sex: F344/FEMALE, Target Tissue: Type of Lesion: URINARY BLADDER: PAPILLOMA, Dose [Carcinogen]: 0.05% IN DRINKING WATER FOR 4 WK, Promoter: MITOMYCIN C, 50-07-7): 20/40 (50%), 11/20 (55%), -10%, not significant; tumour outcome (control, treated, inhibition, significance) (Carcinogen: N-NITROSOBIS(2-OXOPROPYL)AMINE, 60599-38-4, Dose [Inhibitor]: 0, 35 UG/D FROM OSMOTIC PUMP FOR 2 MO, Route [Inhibitor]: SUBCUTANEOUS IMPLANT, Species: HAMSTER, Strain/Sex: SYRIAN/FEMALE, Target Tissue: Type of Lesion: PANCREAS: ADENOCARCINOMA, Promoter: NONE USED): 12/12 (100%), 6/11 (55%), 45%, not calculated
